Laboratory results published in publication PMC6651094, “A Ligand-Based Virtual Screening Method Using Direct Quantification of Generalization Ability” (Molecules, 2019).

The compounds below were run against T1, HIV-1 integrase multimerization (Human immunodeficiency virus type 1 group M subtype B, UniProt P12497) (assay: HTRF assay validating activators of HIV-1 integrase multimerization (in vitro binding assay)). Details: His-tagged and FLAG-tagged integrase 20 nM each; time-resolved FRET; 8-point 1:3 dilution from 53.7 μM, triplicate; active when EC50 < 5 µM.
T1 construct: His-tagged and FLAG-tagged integrase (donated by professor Mamuka Kvaratskhelia); gift of Prof; Mamuka Kvaratskhelia (University of Colorado Denver Anschutz Medical Campus)
Assay type: biochemical
Experimental: An assay was carried out as previously described to experimentally validate the compounds [45] identified by LBS as activators of HIV-1 integrase multimerization. Briefly, His-tagged and FLAG-tagged integrase (donated by professor Mamuka Kvaratskhelia at university of Colorado Denver Anschutz Medical Campus) were separately prepared with final concentration of 20 nM. An antibody mixture was prepared with 1.25 μg/mL of anti-6xHis-XL665 antibody (Cisbio) and 58 ng/mL of anti-FLAG-EuCryptate antibody (Cisbio), respectively, in Tris-HCl buffer. His-tagged and FLAG-tagged Integrase were mixed in 25 mM Tris-HCl (pH 7.4) buffer containing 150 mM NaCl, 2 mM MgCl2, 0.1% Nonidet P40, and 1 mg/mL BSA. 35 μL of integrase mixture was added to each well. Next, 270 nL of compounds (each in triplicate using 8-point 1:3 dilution series starting at a maximum nominal test concentration of 53.7 μM) were distributed to appropriate wells. Dimethyl sulfoxide was used as low-control, and BIB-II (donated by professor Mamuka Kvaratskhelia at university of Colorado Denver Anschutz Medical Campus) was used as high-control reference compound. After 3 h of incubation, 15 μL of antibody mixture was added to the plates. After incubation at room temperature for 2.5 h, the time-resolved fluorescence energy transfer signal was measured by the microplate reader (SpectraMax M5, Molecular Devices, LLC., San Jose, CA, USA) by exciting the plates (384 well, Corning) at 340 nm and monitoring well fluorescence at 618 nm and 671 nm with the microplate reader. All the test compounds were bought from ChemDiv (San Diego, CA, USA).

Structure (SMILES)	EC50 [nM]
COc1cccc(/C=N/Nc2nc3c(=O)[nH]c(N)nc3n2C2OC(CO)C(O)C2O)c1O (stereo not shown) [Pubchem CID 135427812]	710
O=C(NN=Cc1ccccc1F)c1cc(O)c(O)c(O)c1 [compound 3656702]	4880
O=C(NNC1OC(CO)C(O)C(O)C1O)c1ccc(O)cc1 (stereo not shown) [compound 4137880]	1260
O=c1cc(-c2ccc(O)c(O)c2)oc2cc(OC3OC(CO)C(O)C(O)C3O)cc(O)c12 (stereo not shown) [compound 5291488]	3620
O=c1c(OC2OC(CO)C(O)C(O)C2O)c(-c2ccc(O)c(O)c2)oc2cc(O)cc(O)c12 (stereo not shown) [compound 5378597]	1360
O=c1c2cc(O)c(O)cc2oc2cc(O)c(OC3OC(CO)C(O)C(O)C3O)c(O)c12 (stereo not shown) [compound 46397461]	1260
COc1cccc(C=NNc2nc3c(=O)[nH]c(N)nc3n2C2OC(CO)C(O)C2O)c1O (stereo not shown) [compound 135427812]	710
